Laboratory results as given in EP1190034B1, “BLEACH ACTIVATOR BASED ON INULIN” (Coöperatie Cosun U.A., priority 1999, dated 2001).

Key:
Solubility in water = format: physicochemical
[1] = Bleach activator test procedure (peracetic acid liberated, iodometric titration); conditions: hydrogen peroxide, 30 °C, pH 11.6, 4 minutes, correction factor 1.10
Experimental: The bleach activator property is determined on the basis of the quantity of peracetic acid that can be liberated from the product. […] The best characteristics are found when the acylation is carried out in water at controlled pH (Table 1).
Mix the following solutions: • 15 ml 0.6% hydrogen peroxide solution • 10 ml saturated sodium pyrophosphate solution • 10 ml 0.05% EDTA solution. • Make up to 100 ml with demineralised water and heat to 30 °C. • Add the heated mixture to an accurately weighed amount (75 - 90 mg) of bleach activator in a 600 ml glass beaker. • Adjust the pH to 11.6 with 0.1 M NaOH solution. • Precisely 4 minutes after the first addition add 30 ml 0.1% catalase solution. • Adjust the pH to 10.5 with 0.5 M sulphuric acid solution and cool the solution to 0 - 3 °C. • Precisely 6 minutes after the first addition add 15 ml 100% acetic acid solution and 15 ml 10% potassium iodide solution. • Titrate the liberated iodine against a 0.1 M thiosulphate solution. The mol% peracetic acid liberated from the bleach activator can be calculated from the quantity of thiosulphate solution required, 2 mmol thiosulphate corresponding to 1 mmol peracetic acid formed. The determinations were corrected for the loss of peracetic acid during the measurement. The correction factor for this loss is 1.10.

Solubility (%) (Solubility in water): 0.1%
SMILES: CC(=O)N(CCN(C(C)=O)C(C)=O)C(C)=O [TAED, tetraacetylethylenediamine]
Peracetate formed (mol%) ([1]; 100 x number of mols of peracetate formed / total number of mols of acetyl groups in product): 45 mol% | mol peracetate/ kg product [1]: 7.9 mol peracetate/ kg product
